Source: patent publication US11306092B2, “Amino indole compounds useful as TLR inhibitors” (BRISTOL-MYERS SQUIBB COMPANY, priority 2017, dated 2022)

Tests used:
Type in all cases: cell-based
human TLR9 = target: T1, human TLR9 (Homo sapiens, UniProt Q9NR96); test: TLR9 inhibition reporter assay (HEK-Blue SEAP reporter); conditions: HEK-Blue cells overexpressing human TLR9; ODN2006 5 nM; 22 hour incubation
T1 construct: host or cells: HEK-Blue cells
T1 sequence (Q9NR96 26-1032): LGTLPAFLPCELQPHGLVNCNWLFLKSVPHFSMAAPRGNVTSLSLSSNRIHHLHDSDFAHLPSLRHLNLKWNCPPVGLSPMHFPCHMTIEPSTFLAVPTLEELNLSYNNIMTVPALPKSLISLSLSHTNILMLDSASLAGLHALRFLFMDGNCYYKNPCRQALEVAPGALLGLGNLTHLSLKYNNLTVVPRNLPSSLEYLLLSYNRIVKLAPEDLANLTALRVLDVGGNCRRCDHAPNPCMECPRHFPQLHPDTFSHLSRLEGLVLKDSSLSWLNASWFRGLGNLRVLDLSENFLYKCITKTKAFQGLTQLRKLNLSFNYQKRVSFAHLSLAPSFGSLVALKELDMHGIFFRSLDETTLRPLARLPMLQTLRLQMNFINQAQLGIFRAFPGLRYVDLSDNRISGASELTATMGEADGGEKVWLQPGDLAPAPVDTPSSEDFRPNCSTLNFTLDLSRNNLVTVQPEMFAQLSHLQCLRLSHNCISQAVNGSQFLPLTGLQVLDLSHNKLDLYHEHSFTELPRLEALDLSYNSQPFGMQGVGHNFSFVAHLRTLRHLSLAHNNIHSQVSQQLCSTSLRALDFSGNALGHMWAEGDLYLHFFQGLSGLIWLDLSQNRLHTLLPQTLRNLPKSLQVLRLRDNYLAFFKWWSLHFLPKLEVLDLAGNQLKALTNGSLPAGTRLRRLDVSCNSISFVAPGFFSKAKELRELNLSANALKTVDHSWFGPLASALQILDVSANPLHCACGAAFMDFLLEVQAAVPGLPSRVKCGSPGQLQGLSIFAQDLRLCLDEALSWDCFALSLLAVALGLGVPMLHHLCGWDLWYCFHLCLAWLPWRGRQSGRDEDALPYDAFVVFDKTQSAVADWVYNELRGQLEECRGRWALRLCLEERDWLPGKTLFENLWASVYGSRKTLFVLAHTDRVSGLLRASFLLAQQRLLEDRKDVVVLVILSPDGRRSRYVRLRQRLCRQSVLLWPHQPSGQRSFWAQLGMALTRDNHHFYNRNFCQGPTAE
In short: (§1)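 Agonists used: gardiquimod 7.5 μM (TLR7), R848 15.9 μM (TLR8), ODN2006 5 nM (TLR9), added after 30 min room-temperature compound pre-treatment (0.05 nM–50 μM) of receptor-overexpressing HEK-Blue cells. SEAP reporter (NF-κB/AP-1 driven) read after 22 h at 37 °C; inhibition scaled between agonist+DMSO and reference-inhibitor wells.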

human TLR8 = target: T2, human TLR8 (Homo sapiens, UniProt Q9NR97); test: TLR8 inhibition reporter assay (HEK-Blue SEAP reporter); conditions: HEK-Blue cells overexpressing human TLR8; R848 15.9 μM; 22 hour incubation
T2 construct: host or cells: HEK-Blue cells
T2 sequence (Q9NR97 27-1041): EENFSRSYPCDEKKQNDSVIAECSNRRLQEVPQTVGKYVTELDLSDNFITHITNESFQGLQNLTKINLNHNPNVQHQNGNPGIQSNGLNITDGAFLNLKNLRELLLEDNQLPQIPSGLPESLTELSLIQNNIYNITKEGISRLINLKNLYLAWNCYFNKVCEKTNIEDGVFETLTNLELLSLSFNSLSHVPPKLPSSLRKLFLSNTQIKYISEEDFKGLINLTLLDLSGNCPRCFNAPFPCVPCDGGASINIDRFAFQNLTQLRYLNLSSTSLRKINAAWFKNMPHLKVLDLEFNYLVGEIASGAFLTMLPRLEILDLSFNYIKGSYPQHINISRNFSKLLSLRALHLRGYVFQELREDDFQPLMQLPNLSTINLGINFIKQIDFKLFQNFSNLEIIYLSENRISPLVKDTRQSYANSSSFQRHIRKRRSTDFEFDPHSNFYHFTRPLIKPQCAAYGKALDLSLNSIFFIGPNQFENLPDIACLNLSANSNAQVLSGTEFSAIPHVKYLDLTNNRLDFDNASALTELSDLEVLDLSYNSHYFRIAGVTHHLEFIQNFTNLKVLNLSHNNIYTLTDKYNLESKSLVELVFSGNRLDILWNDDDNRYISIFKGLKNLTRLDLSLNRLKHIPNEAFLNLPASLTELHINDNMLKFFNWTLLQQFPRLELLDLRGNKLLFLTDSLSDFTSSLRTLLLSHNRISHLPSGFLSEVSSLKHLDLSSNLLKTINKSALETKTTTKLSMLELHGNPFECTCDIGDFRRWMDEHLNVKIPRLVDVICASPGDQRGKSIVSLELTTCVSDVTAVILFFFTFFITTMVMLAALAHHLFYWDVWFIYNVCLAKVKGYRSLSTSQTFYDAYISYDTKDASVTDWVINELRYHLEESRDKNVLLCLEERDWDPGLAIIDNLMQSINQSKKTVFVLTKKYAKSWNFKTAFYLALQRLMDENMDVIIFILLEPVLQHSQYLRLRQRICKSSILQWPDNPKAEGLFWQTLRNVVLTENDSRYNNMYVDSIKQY
In short: as §1

human TLR7 = target: T3, human TLR7 (Homo sapiens, UniProt Q9NYK1); test: TLR7 inhibition reporter assay (HEK-Blue SEAP reporter); conditions: HEK-Blue cells overexpressing human TLR7; gardiquimod 7.5 μM; 22 hour incubation
T3 construct: host or cells: HEK-Blue cells
T3 sequence (Q9NYK1 27-1049): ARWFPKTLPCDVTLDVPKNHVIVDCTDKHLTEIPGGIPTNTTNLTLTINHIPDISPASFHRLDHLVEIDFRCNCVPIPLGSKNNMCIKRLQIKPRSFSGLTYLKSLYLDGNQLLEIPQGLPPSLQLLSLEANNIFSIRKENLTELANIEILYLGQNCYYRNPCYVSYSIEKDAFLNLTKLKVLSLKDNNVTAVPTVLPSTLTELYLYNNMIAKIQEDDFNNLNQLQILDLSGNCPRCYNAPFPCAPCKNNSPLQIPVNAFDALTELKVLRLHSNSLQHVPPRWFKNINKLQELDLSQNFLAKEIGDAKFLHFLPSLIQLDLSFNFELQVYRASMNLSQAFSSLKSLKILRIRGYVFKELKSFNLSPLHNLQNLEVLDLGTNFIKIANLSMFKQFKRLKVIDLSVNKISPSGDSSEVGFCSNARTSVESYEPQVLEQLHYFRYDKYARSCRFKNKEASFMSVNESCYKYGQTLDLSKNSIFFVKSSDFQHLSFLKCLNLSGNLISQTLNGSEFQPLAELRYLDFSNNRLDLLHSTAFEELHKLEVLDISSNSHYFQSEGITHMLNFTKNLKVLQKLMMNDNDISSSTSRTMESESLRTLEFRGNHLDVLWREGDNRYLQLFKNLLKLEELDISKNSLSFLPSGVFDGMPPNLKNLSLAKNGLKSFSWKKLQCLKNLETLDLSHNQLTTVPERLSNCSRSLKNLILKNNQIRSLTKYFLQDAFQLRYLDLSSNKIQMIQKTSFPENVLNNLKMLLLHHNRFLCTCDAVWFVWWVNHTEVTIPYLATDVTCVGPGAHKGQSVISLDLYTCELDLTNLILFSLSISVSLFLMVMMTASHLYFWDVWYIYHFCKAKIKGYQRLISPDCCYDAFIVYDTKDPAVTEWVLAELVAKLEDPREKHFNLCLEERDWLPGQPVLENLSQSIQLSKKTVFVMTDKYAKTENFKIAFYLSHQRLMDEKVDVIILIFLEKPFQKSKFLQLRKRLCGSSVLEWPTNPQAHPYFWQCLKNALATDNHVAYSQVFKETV
In short: as §1

SMILES	IC50 (human TLR9) [nM]	IC50 (human TLR8) [nM]	IC50 (human TLR7) [nM]
COc1ccc(-c2[nH]c3ccc(N4CCN(C5CCCN(C(C)C)CC5)CC4)cc3c2C(C)C)cc1OC (stereo not drawn) [Example 122, 2-(3,4-dimethoxyphenyl)-3-isopropyl-5-(4-(1-isopropylazepan-4-yl)piperazin-1-yl)-1H-indole]	621	3.4	42
CC[C@@H](C)[C@@H](N)C(=O)Nc1ccc2[nH]c(-c3ccc(OC)c(OC)c3)c(C(C)C)c2c1 [Example 17, (2R,3R)-2-amino-N-(2-(3,4-dimethoxyphenyl)-3-isopropyl-1H-indol-5-yl)-3-methylpentanamide]	6000	72	299
COc1ccc(-c2[nH]c3ccc(N4CCC(NC5CCN(C(C)=O)CC5)CC4)cc3c2C(C)C)cc1OC [Example 89, 1-(4-((1-(2-(3,4-dimethoxyphenyl)-3-isopropyl-1H-indol-5-yl)piperidin-4-yl)amino)piperidin-1-yl) ethan-1-one]	2000	5	31
CCc1c(-c2ccnc(C)c2)[nH]c2ccc(N3CCN(C4CCN(C)CC4)CC3)cc12 [Example 139, 3-ethyl-5-(4-(1-methylpiperidin-4-yl)piperazin-1-yl)-2-(2-methylpyridin-4-yl)-1H-indole]	157	1070	2760
CNCCN1CCN(c2ccc3[nH]c(-c4ccnc5[nH]ccc45)c(C(C)C)c3c2)CC1 [Example 138, 2-(4-(3-isopropyl-2-(1H-pyrrolo[2,3-b]pyridin-4-yl)-1H-indol-5-yl)piperazin-1-yl)-N-methylethan-1-amine]	939	0.62	2
CCc1c(-c2ccc(OC)c(OC)c2)[nH]c2ccc(N3CCC(OC4CCN(C(C)C)CC4)CC3)cc12 [Example 191, 2-(3,4-dimethoxyphenyl)-3-ethyl-5-(4-((1-isopropylpiperidin-4-yl)oxy)piperidin-1-yl)-1H-indole]	836	66	87
COc1ccc(-c2[nH]c3ccc(NC(=O)[C@@H](N)c4ccccc4)cc3c2C(C)C)cc1OC [Example 25, (S)-2-amino-N-(2-(3,4-dimethoxyphenyl)-3-isopropyl-1H-indol-5-yl)-2-phenylacetamide]	> 50000	101	621
COc1ccc(-c2[nH]c3ccc(N4CCC(N5CCN(CC(C)C)CC5)CC4)cc3c2C(C)C)cc1OC [Example 91, 2-(3,4-dimethoxyphenyl)-5-(4-(4-isobutylpiperazin-1-yl)piperidin-1-yl)-3-isopropyl-1H-indole]	1940	92	116
CC(C)c1c(-c2ccnc3[nH]ncc23)[nH]c2ccc(N3CCN(C4CCN(C(C)C)CC4)CC3)cc12 [Example 168, 4-(3-isopropyl-5-(4-(1-isopropylpiperidin-4-yl)piperazin-1-yl)-1H-indol-2-yl)-1H-pyrazolo[3,4-b]pyridine]	259	48000	> 50000
COc1ccc(-c2[nH]c3ccc(N4CCCC5CN(Cc6ccccc6)CC54)cc3c2C(C)C)cc1OC (stereo not drawn) [Example 118, 6-benzyl-1-(2-(3,4-dimethoxyphenyl)-3-isopropyl-1H-indol-5-yl)octahydro-1H-pyrrolo[3,4-b]pyridine]	1760	325	1120
COc1ccc(-c2[nH]c3ccc(NC(=O)[C@@H](N)CCCN)cc3c2C(C)C)cc1OC [Example 20, (S)-2,5-diamino-N-(2-(3,4-dimethoxyphenyl)-3-isopropyl-1H-indol-5-yl)pentanamide]	> 50000	106	125
CCc1c(-c2ccnc(OC)c2)[nH]c2ccc(N3CCN(C4CCN(C(C)C)CC4)CC3)cc12 [Example 153, 3-ethyl-5-(4-(1-isopropylpiperidin-4-yl)piperazin-1-yl)-2-(2-methoxypyridin-4-yl)-1H-indole]	755	11	83
CC(C)c1c(-c2ccnc3[nH]ccc23)[nH]c2ccc(N3CCN(C4CCN(C(C)C)CC4)CC3)cc12 [Example 166, 4-(3-isopropyl-5-(4-(1-isopropylpiperidin-4-yl)piperazin-1-yl)-1H-indol-2-yl)-1H-pyrrolo[2,3-b]pyridine]	318	0.05	6.2
CCC[C@@H](N)C(=O)Nc1ccc2[nH]c(-c3ccc(OC)c(OC)c3)c(C(C)C)c2c1 [Example 14, (R)-2-amino-N-(2-(3,4-dimethoxyphenyl)-3-isopropyl-1H-indol-5-yl)pentanamide]	7830	67	347
CCc1c(-c2ccnc3[nH]ncc23)[nH]c2ccc(N3CCN(C4CCN(C(C)C)CC4)CC3)cc12 [Example 159, 4-(3-ethyl-5-(4-(1-isopropylpiperidin-4-yl)piperazin-1-yl)-1H-indol-2-yl)-1H-pyrazolo[3,4-b]pyridine]	684	6010	5640
